Columns and labels:
[1] = test system: wild-type HIV-IIIB strain; assay: Antiviral analysis EGFP: anti-HIV activity in MT4 LTR-EGFP cells; assay type: cell-based, HIV-1; details: fluorescence of HIV-infected cells reduced by 50%, three days after infection
Description: The compounds of the present invention were tested for anti-viral activity in a cellular assay, which was performed according to the following procedure.
The human T-cell line MT4 is engineered with Green Fluorescent Protein (GFP) and an HIV-specific promoter, HIV-1 long terminal repeat (LTR). This cell line is designated MT4 LTR-EGFP, and can be used for the in vitro evaluation of anti-HIV activity of investigational compounds. In HIV-1 infected cells, the Tat protein is produced which upregulates the LTR promotor and finally leads to stimulation of the GFP reporter production, allowing measuring ongoing HIV-infection fluorometrically.
(§1) Effective concentration values such as 50% effective concentration (EC50) can be determined and are usually expressed in μM. An EC50 value is defined as the concentration of test compound that reduces the fluorescence of HIV-infected cells by 50%. The 50% cytotoxic concentration (CC50 in μM) is defined as the concentration of test compound that reduces fluorescence of the mock-infected cells by 50%. The ratio of CC50 to EC50 is defined as the selectivity index (SI) and is an indication of the selectivity of the anti-HIV activity of the inhibitor. The ultimate monitoring of HIV-1 infection and cytotoxicity is done using a scanning microscope. Image analysis allows very sensitive detection of viral infection. Measurements are done before cell necrosis, which usually takes place about five days after infection, in particular measurements are performed three days after infection.
The following Table 5 lists EC50 values, expressed in micromole/liter, against wild-type HIV-IIIB strain, for a selected number of compounds of the invention.

[2] = test system: MT4 CMV-EGFP cells; assay: Cytotoxicity in mock-infected MT4 CMV-EGFP cells; assay type: cell-based, human; details: fluorescence reduced by 50%
Excerpt: Analogously, MT4 cells are engineered with GFP and the constitutional cytomegalovirus (CMV) promotor. This cell line is designated MT4 CMV-EGFP, and can be used for the in vitro evaluation of cytotoxicity of investigational compounds. In this cell line, GFP levels are comparably to those of infected MT4 LTR-EGFP cells. Cytotoxic investigational compounds reduce GFP levels of mock-infected MT4 CMV-EGFP cells.
as §1

SMILES	EC50 [1] [µM]	CC50 [2] [µM]
CC(=O)NCc1cccc(-c2ccc3cc(C#N)c(=O)n(-c4ccc([N+](=O)[O-])cc4)c3c2)c1 [compound 43]	0.93	> 100
N#Cc1cc2ccc(-c3ccc[nH]3)cc2n(-c2ccc([N+](=O)[O-])cc2)c1=O [compound 34]	0.25	32.3
N#Cc1ccc2cc(C#N)c(=O)n(-c3ccc([N+](=O)[O-])cc3)c2c1 [compound 96]	13.5	> 100
N#Cc1cc2ccc(-c3ccc(C(=O)O)cc3)cc2n(-c2ccc([N+](=O)[O-])cc2)c1=O [compound 49]	> 100	> 100
N#Cc1cc2ccc(OCCO)cc2n(-c2ccc([N+](=O)[O-])cc2)c1=O [compound 75]	3.49	> 32
N#Cc1cc2ccc(NCCN3CCCC3)cc2n(-c2ccc([N+](=O)[O-])cc2)c1=O [compound 12]	1.22	> 100
N#Cc1cc2cc(OCCN3CCCC3)ccc2n(-c2ccc([N+](=O)[O-])cc2)c1=O [compound 89]	1.57	> 32
N#Cc1c(N)c2cc3c(cc2n(-c2ccc(Cl)nc2)c1=O)OCO3 [compound 117]	> 32	> 32
N#Cc1cc2ccc(OCCCCN)cc2n(-c2ccc([N+](=O)[O-])cc2)c1=O [compound 60]	3.76	> 32
CN(C)CCNc1c(C#N)c(=O)n(-c2ccc([N+](=O)[O-])cc2)c2ccccc12 [compound 142]	3.28	54.7
N#Cc1c(N)c2ccc(Cl)cc2n(-c2cccc([N+](=O)[O-])c2)c1=O [compound 112]	5.63	> 100
CN(C)CCOc1ccc2c(c1)cc(C#N)c(=O)n2-c1ccc([N+](=O)[O-])cc1 [compound 90]	0.89	> 32
N#Cc1cc2ccc(NCCCN3CCCC3)cc2n(-c2ccc([N+](=O)[O-])cc2)c1=O [compound 21]	0.21	69.5
N#Cc1c(N)c2ccc(C(F)(F)F)cc2n(-c2ccc([N+](=O)[O-])cc2)c1=O [compound 114]	3.94	> 100
CC(=O)Nc1cccc(-c2ccc3cc(C#N)c(=O)n(-c4ccc([N+](=O)[O-])cc4)c3c2)c1 [compound 39]	51.3	> 100
N#Cc1c(N)c2ccc(Cl)cc2n(-c2ccc3nonc3c2)c1=O [compound 113]	2.73	> 100
N#Cc1cc2ccc(-c3ccc(C(N)=O)cc3)cc2n(-c2ccc([N+](=O)[O-])cc2)c1=O [compound 35]	1.71	22.6
N#Cc1c(NCCCN)c2ccccc2n(-c2ccc([N+](=O)[O-])cc2)c1=O [compound 137]	3.66	45.1
N#Cc1c(N)c2ccc(-c3cscn3)cc2n(-c2ccc([N+](=O)[O-])cc2)c1=O [compound 120]	0.54	> 100
N#Cc1c(NCCO)c2ccccc2n(-c2ccc([N+](=O)[O-])cc2)c1=O [compound 134]	13.5	54.6
CNCCNc1c(C#N)c(=O)n(-c2ccc([N+](=O)[O-])cc2)c2ccccc12 [compound 135]	3.37	53.2
Cc1ccc(-n2c(=O)c(C#N)c(N)c3ccc(Cl)cc32)cc1C#N [compound 162]	0.87	> 100
N#Cc1c(NCCc2c[nH]cn2)c2ccccc2n(-c2ccc([N+](=O)[O-])cc2)c1=O [compound 144]	3.84	> 100
N#Cc1cc2ccc(OCCN3CCOCC3)cc2n(-c2ccc([N+](=O)[O-])cc2)c1=O [compound 55]	13.5	> 32
N#Cc1cc2ccc(NCCN3CCOCC3)cc2n(-c2ccc([N+](=O)[O-])cc2)c1=O [compound 14]	4.08	> 32

SMILES	EC50 [1] [µM]	CC50 [2] [µM]
N#Cc1cc2ccc(OCCN3CCNCC3)cc2n(-c2ccc([N+](=O)[O-])cc2)c1=O [compound 61]	3.65	> 32
N#Cc1cc2ccc(OCCCN3CCCCC3)cc2n(-c2ccc([N+](=O)[O-])cc2)c1=O [compound 67]	1.17	> 32
N#Cc1cc2ccc(NCCN)cc2n(-c2ccc([N+](=O)[O-])cc2)c1=O [compound 16]	1.55	> 32
CNc1c(C#N)c(=O)n(-c2ccc(C)c(C#N)c2)c2ccccc12 [compound 165]	7.94	> 100
COc1ccc2c(N)c(C#N)c(=O)n(-c3ccc([N+](=O)[O-])cc3)c2c1 [compound 116]	0.78	> 100
N#Cc1c(NCCCN2CCCC2)c2ccccc2n(-c2ccc([N+](=O)[O-])cc2)c1=O [compound 132]	2.04	15.3
N#Cc1cc2ccc(-c3cc[nH]n3)cc2n(-c2ccc([N+](=O)[O-])cc2)c1=O [compound 46]	0.16	> 100
N#Cc1cc2ccc(-c3cc[nH]c3)cc2n(-c2ccc([N+](=O)[O-])cc2)c1=O [compound 44]	0.19	> 100
N#Cc1cc2ccc(OCCCN)cc2n(-c2ccc(Cl)nc2)c1=O [compound 92]	8.55	> 32
Cc1ccc(-n2c(=O)c(C#N)cc3ccc(-c4cccc(CO)c4)cc32)cc1C#N [compound 156]	2.58	64.9
N#Cc1c(NCC2CCNC2)c2ccccc2n(-c2ccc([N+](=O)[O-])cc2)c1=O (centres unmarked) [compound 143]	11.3	> 100
CCN(CC)CCOc1ccc2cc(C#N)c(=O)n(-c3ccc([N+](=O)[O-])cc3)c2c1 [compound 59]	12.9	> 32
Cc1ccc(-n2c(=O)c(C#N)cc3ccc(Cl)cc32)cc1C#N [compound 161]	6.1	> 100
N#Cc1cc2ccc(OCCN3CCCC3)cc2n(-c2ccc([N+](=O)[O-])cc2)c1=O [compound 52]	2.45	> 32
N#Cc1cc2cc3c(cc2n(-c2ccc([N+](=O)[O-])cc2)c1=O)OCO3 [compound 6]	1.12	> 100
N#Cc1c(N)c2cc(F)c(Cl)cc2n(-c2ccc([N+](=O)[O-])cc2)c1=O [compound 108]	0.9	> 100
N#Cc1cc2cc(OCCN)ccc2n(-c2ccc([N+](=O)[O-])cc2)c1=O [compound 86]	1.18	> 32
CS(=O)(=O)NCc1cccc(-c2ccc3cc(C#N)c(=O)n(-c4ccc([N+](=O)[O-])cc4)c3c2)c1 [compound 50]	3	11.8
CC(=O)NCc1cccc(-c2ccc3cc(C#N)c(=O)n(-c4ccc(C)c(C#N)c4)c3c2)c1 [compound 151]	2.22	> 100
N#Cc1c(NCCN)c2ccccc2n(-c2ccc([N+](=O)[O-])cc2)c1=O [compound 133]	0.23	20.1
COc1cc2c(N)c(C#N)c(=O)n(-c3ccc([N+](=O)[O-])cc3)c2cc1OC [compound 109]	13.5	> 100
Cc1ccc(-n2c(=O)c(C#N)cc3ccc(-c4cccn4C)cc32)cc1C#N [compound 154]	10	> 100
N#Cc1cc2ccc(-c3cnccn3)cc2n(-c2ccc([N+](=O)[O-])cc2)c1=O [compound 78]	1.32	> 100
Cc1ccc(-n2c(=O)c(C#N)cc3ccc(-c4cscn4)cc32)cc1C#N [compound 160]	0.33	–
N#Cc1cc2ccc(-c3ncco3)cc2n(-c2ccc([N+](=O)[O-])cc2)c1=O [compound 79]	0.12	–

— US20100087649A1, “QUINOLINONE DERIVATIVES” (priority 2006, published 2010)
